From PubChem BioAssay AID330 (DTP/NCI, 2004)
Several values for one entry are separate records, joined by “and”; a condition that tells them apart may be missing. Equal values may be shown once. Toxic doses and inconclusive results are not listed.

Test system: P388 leukemia ip, CD2F1 mice, survival T/C
Assay: NCI In Vivo Anticancer Drug Screen. Data for tumor model P388 Leukemia (intraperitoneal) in CD2F1 (CDF1) mice
Conditions: endpoint: median survival time, higher = longer survival
Summary of the method: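 Mice carrying the transplanted tumor received test compound or vehicle. Survival was recorded in each group, and the value is the treated-group measurement divided by that of the vehicle-treated control group.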

[1] = dose: 50.0 mg/kg/injection, schedule: Q01DX005 (ip), vehicle: Klucel (hydroxypropylcellulose) (HPC)
[2] = dose: 100.0 mg/kg/injection, schedule: Q01DX005 (ip), vehicle: Klucel (hydroxypropylcellulose) (HPC)
[3] = dose: 50.0 mg/kg/injection, schedule: Q01DX005 (ip), vehicle: saline with Tween-80
[4] = dose: 100.0 mg/kg/injection, schedule: Q01DX005 (ip), vehicle: saline with Tween-80
[5] = dose: 60.0 mg/kg/injection, schedule: Q01DX005 (ip), vehicle: saline with Tween-80
[6] = dose: 50.0 mg/kg/injection, schedule: Q01DX009 (ip), vehicle: saline

SMILES: CN1C(=O)n2c(nc3ccccc32)C(N2CCOCC2)(N2CCOCC2)C1=O
- T/C (dose: 100.0 mg/kg/injection, schedule: Q01DX001 (ip), vehicle: saline with Tween-80): 103 % of control
- T/C (dose: 200.0 mg/kg/injection, schedule: Q01DX001 (ip), vehicle: saline with Tween-80): 96 % of control
- T/C (dose: 400.0 mg/kg/injection, schedule: Q01DX001 (ip), vehicle: saline with Tween-80): 89 % of control

SMILES: CCOC(=O)C1(Br)CCCCC1
- T/C (dose: 50.0 mg/kg/injection, schedule: Q01DX009 (ip), vehicle: saline with Tween-80): 109 % of control
- T/C (dose: 100.0 mg/kg/injection, schedule: Q01DX009 (ip), vehicle: saline with Tween-80): 111 % of control
- T/C (dose: 200.0 mg/kg/injection, schedule: Q01DX009 (ip), vehicle: saline with Tween-80): 103 % of control

SMILES: C/C(=N/N/C=N/S(C)(=O)=O)c1ccccc1
- T/C [1]: 103 % of control
- T/C [2]: 100 % of control
- T/C (dose: 200.0 mg/kg/injection, schedule: Q01DX005 (ip), vehicle: Klucel (hydroxypropylcellulose) (HPC)): 99 % of control

SMILES: [CH3][Sn]([CH3])([n]1cc(CC(=O)O)c2ccccc21)[n]1cc(CC(=O)O)c2ccccc21
- T/C [1]: 116 % of control
- T/C [2]: 108 % of control

SMILES: O=COCC(C(=O)O)c1ccccc1 (stereo not drawn)
- T/C [3]: 102 % of control
- T/C [4]: 94 % of control
- T/C (dose: 200.0 mg/kg/injection, schedule: Q01DX005 (ip), vehicle: saline with Tween-80): 95 % of control

SMILES: CN(C)Cc1cn(C[Si](C)(C)C)c2ccccc12
- T/C [5]: 112 % of control

SMILES: CC1=CC(=O)C=C(C)C1=O
- T/C (dose: 1.56 mg/kg/injection, schedule: Q04DX003 (ip), vehicle: saline with Tween-80): 106 % of control
- T/C (dose: 3.12 mg/kg/injection, schedule: Q04DX003 (ip), vehicle: saline with Tween-80): 89 % of control
- T/C (dose: 6.25 mg/kg/injection, schedule: Q04DX003 (ip), vehicle: saline with Tween-80): 103 % of control

SMILES: C=C1C(=O)C23OC2C1CCC(=O)C1(C)CC[C@H](OC(C)=O)C(C)(C)[C@H]1CC3=O (stereo partly drawn)
- T/C (dose: 2.5 mg/kg/injection, schedule: Q01DX005 (ip), vehicle: Klucel (hydroxypropylcellulose) (HPC)): 111 % of control
- T/C (dose: 5.0 mg/kg/injection, schedule: Q01DX005 (ip), vehicle: Klucel (hydroxypropylcellulose) (HPC)): 107 % of control
- T/C (dose: 10.0 mg/kg/injection, schedule: Q01DX005 (ip), vehicle: Klucel (hydroxypropylcellulose) (HPC)): 107 % of control

SMILES: COc1ccc(CC(=O)O)cc1OC (tested in a mixture with another compound)
- T/C (dose: 100.0 mg/kg/injection, schedule: Q01DX009 (ip), vehicle: saline sonified): 100 % of control
- T/C (dose: 200.0 mg/kg/injection, schedule: Q01DX009 (ip), vehicle: saline sonified): 100 % of control
- T/C (dose: 400.0 mg/kg/injection, schedule: Q01DX009 (ip), vehicle: saline sonified): 100 % of control

SMILES: COC1=C2C[C@@H](C)C[C@@H](OC)[C@@H](O)[C@H](C)/C=C(\C)[C@@H](OC(N)=O)[C@H](OC)/C=C\C=C(/C)C(=O)NC(=CC1=O)C2=O
- T/C (dose: 0.75 mg/kg/injection, schedule: Q01DX009 (ip), vehicle: saline with Tween-80): 114 % of control
- T/C (dose: 1.5 mg/kg/injection, schedule: Q01DX009 (ip), vehicle: saline with Tween-80): 115 % of control

SMILES: COc1ccc2ccc3ccc(OC)nc3c2n1
- T/C [5]: 92 % of control
- T/C (dose: 120.0 mg/kg/injection, schedule: Q01DX005 (ip), vehicle: saline with Tween-80): 95 % of control
- T/C (dose: 240.0 mg/kg/injection, schedule: Q01DX005 (ip), vehicle: saline with Tween-80): 108 % of control

SMILES: C1=CCC2CSCC2C1 (stereo not drawn)
- T/C (dose: 37.5 mg/kg/injection, schedule: Q01DX001 (ip), vehicle: saline sonified): 100 % of control
- T/C (dose: 75.0 mg/kg/injection, schedule: Q01DX001 (ip), vehicle: saline sonified): 105 % of control

SMILES: C/C=C(\C)C(=O)O[C@@H]1[C@H]2C(C)=CC(=O)[C@@H](O)[C@]2(C)[C@H]2[C@@]3(O)OC[C@@]24[C@@H]1OC(=O)C[C@H]4[C@@H](C)[C@H]3O
- T/C (dose: 0.25 mg/kg/injection, schedule: Q01DX009 (ip), vehicle: other): 111 % of control
- T/C (dose: 0.6 mg/kg/injection, schedule: Q01DX009 (ip), vehicle: other): 163 % of control

SMILES: N#CC[n+]1ccccc1
- T/C (dose: 12.5 mg/kg/injection, schedule: Q01DX009 (ip), vehicle: saline): 100 % of control
- T/C (dose: 25.0 mg/kg/injection, schedule: Q01DX009 (ip), vehicle: saline): 100 % of control
- T/C [6]: 101 % of control

SMILES: CC(NNC(=S)N1CCCCCC1)c1ccccn1 (stereo not drawn)
- T/C (dose: 12.5 mg/kg/injection, schedule: Q01DX005 (ip), vehicle: Klucel (hydroxypropylcellulose) (HPC)): 103 % of control
- T/C (dose: 25.0 mg/kg/injection, schedule: Q01DX005 (ip), vehicle: Klucel (hydroxypropylcellulose) (HPC)): 106 % of control
- T/C [1]: 112 % of control and 113 % of control

SMILES: COc1cc2c(cc1OC)C1Cc3cc(OC)c(OC)cc3[N+]1(C)CC2 (stereo not drawn)
- T/C [3]: 103 % of control
- T/C [4]: 103 % of control

SMILES: CN1CCN(c2ccncc2S(=O)(=O)N2CCCC2)CC1
- T/C [6]: 107 % of control
- T/C (dose: 100.0 mg/kg/injection, schedule: Q01DX009 (ip), vehicle: saline): 104 % of control
